By EC50 is commonly meant the concentration needed to bring the measured effect to its halfway point. Lower therefore signals greater potency.

Where only a bound is given, the exact number is not on record here.

This note sets out measurements from patent publication US8440819B2, “Therapeutic substituted beta-lactams” (Allergan, Inc., priority 2008, dated 2013).

Series [1] deals with T1, EP2 (Homo sapiens, UniProt P43116). The experiment in a line: EP2 flipr. The series is classed as cell-based. The source says:
(§1) U.S. patent application Ser. No. 11/553,143, filed on Oct. 26, 2006, incorporated by reference herein, describes the methods used to obtain the in vitro data in Table 1 below.

Series [2] addresses T1, EP2. The series is described as follows: EP2 cAMP. The series is classed as cell-based.
Text: as §1

In series [3] the target is T1, EP2. The series is described as follows: EP2 binding (Ki).
Text: as §1

For series [4], the target named is T2, EP4 (Homo sapiens, UniProt P35408). The experiment in a line: EP4 flipr. The series is classed as cell-based.
Text: as §1

Series [5] concerns the target T2, EP4. The series is described as follows: EP4 binding (Ki). The following applies: read-out: EP4 data Kl.
Text: as §1

Another series concerns the target T3, hEP3A (Homo sapiens, UniProt P43115).
T3 sequence (P43115 1-390): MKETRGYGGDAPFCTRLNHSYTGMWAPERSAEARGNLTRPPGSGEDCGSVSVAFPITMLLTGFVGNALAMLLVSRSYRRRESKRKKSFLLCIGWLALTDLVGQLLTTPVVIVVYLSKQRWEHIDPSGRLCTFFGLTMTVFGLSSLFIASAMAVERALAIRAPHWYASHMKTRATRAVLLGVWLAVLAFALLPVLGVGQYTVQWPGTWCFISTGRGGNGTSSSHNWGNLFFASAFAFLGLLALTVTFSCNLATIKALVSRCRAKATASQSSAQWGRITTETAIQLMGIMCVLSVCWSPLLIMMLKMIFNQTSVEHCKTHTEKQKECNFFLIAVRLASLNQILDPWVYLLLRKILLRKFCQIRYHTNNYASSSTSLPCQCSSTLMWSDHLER
The series is described as follows: Other receptors functional EC50, hEP3A. The series is classed as cell-based.
Text: as §1

The target of the next series is T4, hDP (Homo sapiens, UniProt Q13258).
T4 sequence (Q13258 1-359): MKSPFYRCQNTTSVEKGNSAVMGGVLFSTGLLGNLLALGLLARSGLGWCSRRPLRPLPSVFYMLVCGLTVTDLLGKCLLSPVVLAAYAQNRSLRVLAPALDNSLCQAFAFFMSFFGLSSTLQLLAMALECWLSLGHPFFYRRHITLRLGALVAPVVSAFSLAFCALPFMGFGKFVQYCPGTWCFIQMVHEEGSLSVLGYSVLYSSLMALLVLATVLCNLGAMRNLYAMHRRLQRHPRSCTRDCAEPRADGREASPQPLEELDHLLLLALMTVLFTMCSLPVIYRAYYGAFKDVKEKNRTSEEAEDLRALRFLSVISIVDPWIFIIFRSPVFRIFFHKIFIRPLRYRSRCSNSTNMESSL
The experiment in a line: Other receptors functional EC50, hDP. The series is classed as cell-based.
Text: as §1

For the next series, the system named is normotensive dogs. The series is described as follows: Intraocular pressure and ocular surface hyperemia in normotensive dogs. Particulars: 0.01%, once daily for 5 days. The series is classed as in vivo, dog. The procedure: (§2) U.S. Pat. No. 7,091,231 describes the methods used to carry out the tests reported below.
(§3) Isopropyl (5-(3-((2S)-1-(4-(1-hydroxyhexyl)phenyl)-4-oxoazetidin-2-yl)propyl)thiophene-2-carboxylate (12) was tested in normotensive dogs at 0.01%, dosing once daily for 5 days. The maximum intraocular pressure (IOP) decrease from baseline was 3.7 mmHg (25%) at 6 h; the maximum ocular surface hyperemia (OSH) score was 1.7 at 50 h. This compound was also tested in laser-induced hypertensive monkeys, using one single day dose. At 0.01%, the maximum IOP decrease from baseline was 12.6 mmHg (35%) at 24 h.

The test system of series [6] is laser-induced hypertensive monkeys. The experiment in a line: Intraocular pressure in laser-induced hypertensive monkeys. The series is classed as in vivo, monkey. The following applies: 0.01%, one single day dose, at 24 h. As for the experimental part: as §2, §3

T1 sequence (P43116 whole entry): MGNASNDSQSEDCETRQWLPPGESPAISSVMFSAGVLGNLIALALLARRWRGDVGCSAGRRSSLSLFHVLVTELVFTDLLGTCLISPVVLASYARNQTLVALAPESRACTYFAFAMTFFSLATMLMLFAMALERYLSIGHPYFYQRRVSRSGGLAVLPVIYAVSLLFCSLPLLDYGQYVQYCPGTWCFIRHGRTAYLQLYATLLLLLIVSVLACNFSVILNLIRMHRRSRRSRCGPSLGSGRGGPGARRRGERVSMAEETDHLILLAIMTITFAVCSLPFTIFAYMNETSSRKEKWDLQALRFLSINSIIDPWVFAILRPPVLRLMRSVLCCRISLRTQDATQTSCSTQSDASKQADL
T2 sequence (P35408 whole entry): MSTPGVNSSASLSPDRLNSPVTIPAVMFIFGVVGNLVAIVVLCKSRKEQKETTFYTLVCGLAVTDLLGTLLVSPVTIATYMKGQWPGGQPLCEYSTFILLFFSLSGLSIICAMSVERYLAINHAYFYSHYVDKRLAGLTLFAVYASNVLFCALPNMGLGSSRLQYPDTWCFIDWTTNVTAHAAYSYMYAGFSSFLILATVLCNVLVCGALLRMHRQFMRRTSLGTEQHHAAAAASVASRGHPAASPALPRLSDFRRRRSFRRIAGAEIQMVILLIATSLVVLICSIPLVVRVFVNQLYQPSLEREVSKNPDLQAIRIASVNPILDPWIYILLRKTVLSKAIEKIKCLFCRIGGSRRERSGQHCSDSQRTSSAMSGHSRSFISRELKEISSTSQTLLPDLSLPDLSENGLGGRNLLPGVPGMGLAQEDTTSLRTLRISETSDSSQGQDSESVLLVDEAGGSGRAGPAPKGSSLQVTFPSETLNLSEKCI

On to `CCCCCC(O)c1ccc(N2C(=O)C[C@@H]2CCCc2ccc(C(=O)O)s2)cc1` (mixture of isomers) [compound 11], for which the concentration giving a half-maximal response (EC50) is 1.1 nM at EP2 [1]; 0.4 nM at EP2 [2]; over 10000 nM at EP4 [4]; 42 nM at hEP3A; 4740 nM on hDP. For the same compound, the Ki on EP2 [3] came out at 10 nM; on EP4 [5], 1450 nM.
Regarding `CCCCCC(O)c1ccc(N2C(=O)C[C@@H]2CCCc2ccc(C(=O)OC(C)C)s2)cc1` (stereo partly drawn) [compound 12], in the series with normotensive dogs (at 6 h), the “maximum intraocular pressure (IOP) decrease from baseline” value is 3.7 mmHg and the “maximum intraocular pressure (IOP) decrease from baseline, percent” value is 25%. The “maximum ocular surface hyperemia (OSH) score” value in the series with normotensive dogs (at 50 h) is given as 1.7. Also, in [6], the “maximum IOP decrease from baseline” value amounted to 12.6 mmHg and the “maximum IOP decrease from baseline, percent” value was 35%.
